Results taken from ChEMBL document CHEMBL4425164, “5-Alkyl-2-urea-Substituted Pyridines: Identification of Efficacious Glucokinase Activators with Improved Properties” (ACS Med Chem Lett, 2016).
Values after ≈ are worked out from the molar mass of the structure shown.

Key:
[1] = molecular target: T1, Hexokinase-4 (Homo sapiens) (UniProt P35557); assay: Activation of human recombinant glucokinase assessed as Vmax ratio using 0.16 to 80 mM of glucose as substrate in presence of NAD+ by glucose 6-phosphate dehydrogenase coupled assay relative to control
T1 sequence (whole entry): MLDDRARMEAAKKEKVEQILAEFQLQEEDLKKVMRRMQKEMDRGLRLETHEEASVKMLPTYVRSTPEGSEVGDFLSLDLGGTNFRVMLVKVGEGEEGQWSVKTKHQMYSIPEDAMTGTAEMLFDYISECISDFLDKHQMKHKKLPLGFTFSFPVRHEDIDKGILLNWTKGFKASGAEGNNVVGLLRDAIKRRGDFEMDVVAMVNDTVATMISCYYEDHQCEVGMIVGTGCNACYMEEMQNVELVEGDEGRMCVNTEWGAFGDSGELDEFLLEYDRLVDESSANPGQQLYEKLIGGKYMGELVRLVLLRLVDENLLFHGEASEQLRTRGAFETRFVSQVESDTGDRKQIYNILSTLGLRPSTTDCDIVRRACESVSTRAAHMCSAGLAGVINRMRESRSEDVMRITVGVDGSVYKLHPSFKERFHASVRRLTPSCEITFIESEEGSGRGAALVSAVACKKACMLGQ

Hexokinase-4 [2] = molecular target: T2, Hexokinase-4 (Homo sapiens, UniProt P35557); assay: Activation of human recombinant glucokinase using 5 mM glucose as substrate in presence of NAD+ and 4% HSA by glucose 6-phosphate dehydrogenase coupled assay
T2 sequence (P35557 whole entry): T1 sequence (whole entry)

Hexokinase-4 [3] = molecular target: T2, Hexokinase-4; assay: Activation of human recombinant glucokinase using 5 mM glucose as substrate in presence of NAD+ by glucose 6-phosphate dehydrogenase coupled assay
[4] = molecular target: T1, Hexokinase-4 (Homo sapiens); assay: Activation of human recombinant glucokinase assessed as enzyme affinity for glucose […] as substrate in presence of NAD+ by glucose 6-phosphate dehydrogenase coupled assay
[5] = Solubility of the compound in PBS at pH 7.4; type: physicochemical; settings: buffer
[6] = molecular target: T1, Hexokinase-4 (Homo sapiens); assay: Ratio of EC50 for activation of human recombinant glucokinase in presence of 4% HSA to EC50 for activation of human recombinant glucokinase in absence of 4% HSA
[7] = Clearance in rat at 0.5 mg/kg, iv; type: ADME, organism-based; settings: in vivo
[8] = Fraction unbound in rat plasma; type: ADME, cell-free
[9] = Oral bioavailability in rat at 2 mg/kg; type: ADME, organism-based; settings: in vivo
Rattus norvegicus [10] = assay: Antidiabetic activity in Sprague-Dawley rat assessed as decrease in blood glucose AUC at 100 mg/kg, po measured at 0.5 to 5 hrs by OGTT; type: functional
[11] = AUC in rat at 2 mg/kg, po; type: ADME, organism-based; settings: in vivo
[12] = Half life in mouse at 1 mg/kg, iv; type: ADME, organism-based; settings: in vivo
[13] = Volume of distribution at steady state in mouse at 1 mg/kg, iv; type: ADME, organism-based; settings: in vivo, read-out: Vdss
[14] = Fraction unbound in human plasma; type: ADME, cell-free
[15] = AUC in mouse at 5 mg/kg, po; type: ADME, organism-based; settings: in vivo
Rattus norvegicus [16] = assay: Antidiabetic activity in Sprague-Dawley rat assessed as decrease in blood glucose AUC at 3 mg/kg, po measured at 0.5 to 5 hrs by OGTT; type: functional
[17] = Volume of distribution at steady state in rat at 0.5 mg/kg, iv; type: ADME, organism-based; settings: in vivo, read-out: Vdss
[18] = Clearance in mouse at 1 mg/kg, iv; type: ADME, organism-based; settings: in vivo
Rattus norvegicus [19] = assay: Antidiabetic activity in Sprague-Dawley rat assessed as decrease in blood glucose AUC at 30 mg/kg, po measured at 0.5 to 5 hrs by OGTT; type: functional
[20] = Oral bioavailability in mouse at 5 mg/kg; type: ADME, organism-based; settings: in vivo
Rattus norvegicus [21] = assay: Antidiabetic activity in Sprague-Dawley rat assessed as decrease in blood glucose AUC at 10 mg/kg, po measured at 0.5 to 5 hrs by OGTT; type: functional
[22] = Drug metabolism assessed as oxidation at THP ring site by metabolic ID study
Rattus norvegicus [23] = assay: Antidiabetic activity in po dosed Sprague-Dawley rat assessed as decrease in blood glucose AUC measured at 0.5 to 5 hrs by OGTT; type: functional, organism-based
[24] = Fraction unbound in mouse plasma; type: ADME, cell-free
[25] = Half life in rat at 0.5 mg/kg, iv; type: ADME, organism-based; settings: in vivo
Mus musculus [26] = assay: Antidiabetic activity in po dosed ob/ob mouse diabetic model assessed as decrease in blood glucose AUC administered 30 mins prior to oral glucose load measured at 30 to 120 mins by OGTT; type: functional, organism-based
Mus musculus [27] = assay: Antidiabetic activity in ob/ob mouse diabetic model assessed as decrease in blood glucose AUC at 30 mg/kg, po administered 30 mins prior to oral glucose load measured at 30 to 120 mins by OGTT; type: functional
[28] = Intrinsic clearance in human liver microsomes; type: ADME, Microsome; settings: read-out: CLH

## CNC(=O)Nc1cc(Oc2cncc(C)c2)c([C@H]2C[C@@H](CO)C2)cn1
[1]
  Ratio: 0.82
Hexokinase-4 [2]
  EC50: 70 nM
Hexokinase-4 [3]
  EC50: 40 nM
[4]
  S0.5: 0.57 mM

## CNC(=O)Nc1cc(Oc2cncc(C)c2)c([C@]2(O)C[C@H](O)C2)cn1
[1]
  Ratio: 0.88
Hexokinase-4 [2]
  EC50: 7500 nM
Hexokinase-4 [3]
  EC50: 6700 nM
[4]
  S0.5: 0.67 mM

## CNC(=O)Nc1cc(Oc2cncc(OC)c2)c([C@@H]2COCC[C@@H]2O)cn1 (relative stereo)
[1]
  Ratio: 0.83
[4]
  S0.5: 0.66 mM

## CNC(=O)Nc1cc(Oc2cncc(C)c2)c([C@H]2C[C@@H]2C(C)(C)O)cn1 (relative stereo)
[1]
  Ratio: 0.87
[4]
  S0.5: 0.62 mM

## CNC(=O)Nc1cc(Oc2cncc(C)c2)c(CCCCO)cn1
[1]
  Ratio: 0.87
Hexokinase-4 [2]
  EC50: 56 nM
[5]
  solubility: 500 µM (≈ 165 µg/mL)
Hexokinase-4 [3]
  EC50: 37 nM
[6]
  Ratio EC50: 1 to 3
[4]
  S0.5: 0.54 mM

## CNC(=O)Nc1cc(Oc2cncc(OC)c2)c(C2CCOCC2)cn1
[1]
  Ratio: 1
Hexokinase-4 [2]
  EC50: 150 nM
[7]
  clearance: 46.7 mL/min/kg
Hexokinase-4 [3]
  EC50: 110 nM
[4]
  S0.5: 0.62 mM

## CNC(=O)Nc1cc(Oc2cncc(OC)c2)c([C@H]2CCCOC2)cn1
[8]
  Fu: 28%
[1]
  Ratio: 1.1
[9]
  F: 20%
Rattus norvegicus [10]
  inhibition in vivo at 100 mg/kg: 40%
[11]
  AUC: 3.64 µM·h
[12]
  half-life: 0.3 h
Hexokinase-4 [2]
  EC50: 220 nM
[13]
  Vd: 3.3 L/kg
[7]
  CL: 28.3 mL/min/kg
[5]
  solubility: 303 µM (≈ 109 µg/mL)
[14]
  Fu: 16%
[15]
  AUC: 0.13 µM·h
Rattus norvegicus [16]
  inhibition in vivo at 3 mg/kg: 3%
Hexokinase-4 [3]
  EC50: 160 nM
[17]
  Vd: 0.66 L/kg
[18]
  clearance: 157 mL/min/kg
Rattus norvegicus [19]
  inhibition in vivo at 30 mg/kg: 20%
[20]
  bioavailability: 5%
Rattus norvegicus [21]
  inhibition in vivo at 10 mg/kg: 13%
[22]
  Drug metabolism: Metabolite detected
Rattus norvegicus [23]
  inhibition: Dose-dependent effect
[24]
  Fu: 14%
[25]
  half-life: 0.3 h
[4]
  S0.5: 0.65 mM

## CCOCCc1cnc(NC(=O)NC)cc1Oc1cncc(C)c1
[1]
  Ratio: 0.84
Hexokinase-4 [2]
  EC50: 110 nM
[5]
  solubility: 500 µM (≈ 165 µg/mL)
Hexokinase-4 [3]
  EC50: 98 nM
[6]
  Ratio EC50: 1 to 3
[4]
  S0.5: 0.59 mM

## CNC(=O)Nc1cc(Oc2cncc(C)c2)c(C(C)CO)cn1 (stereo not given)
[1]
  Ratio: 0.95
Hexokinase-4 [2]
  EC50: 820 nM
Hexokinase-4 [3]
  EC50: 670 nM
[6]
  Ratio EC50: 1 to 3
[4]
  S0.5: 0.56 mM

## CNC(=O)Nc1cc(Oc2cncc(C)c2)c([C@H]2C[C@@H](C(C)(C)O)C2)cn1
[1]
  Ratio: 0.54
Hexokinase-4 [2]
  EC50: 120 nM
Hexokinase-4 [3]
  EC50: 51 nM
[4]
  S0.5: 0.68 mM

## CNC(=O)Nc1cc(Oc2cncc(C)c2)c(CCCO)cn1
[1]
  Ratio: 0.96
Hexokinase-4 [2]
  EC50: 100 nM
[5]
  solubility: 500 µM (≈ 158 µg/mL)
Hexokinase-4 [3]
  EC50: 66 nM
[6]
  Ratio EC50: 1 to 3
[4]
  S0.5: 0.55 mM

## CNC(=O)Nc1cc(Oc2cncc(OC)c2)c([C@H]2COCC[C@@H]2F)cn1
[1]
  Ratio: 1
Hexokinase-4 [2]
  EC50: 180 nM
[7]
  clearance: 26.7 mL/min/kg
Hexokinase-4 [3]
  EC50: 170 nM
[4]
  S0.5: 0.85 mM

## CNC(=O)Nc1cc(Oc2cncc(C)c2)c([C@H]2C[C@H](O)C2)cn1
[1]
  Ratio: 0.92
Hexokinase-4 [2]
  EC50: 110 nM
Hexokinase-4 [3]
  EC50: 72 nM
[4]
  S0.5: 0.55 mM

## CNC(=O)Nc1cc(Oc2cncc(C)c2)c(-c2ccc(OCC(C)(C)O)nc2)cn1
[11]; read-out: AUC
  AUC: 2.7 µM·h
[7]
  clearance: 30 mL/min/kg
[17]
  Vd: 2.7 L/kg
[25]
  half-life: 2.3 h

## CNC(=O)Nc1cc(Oc2cncc(OC)c2)c(C2=CCOCC2)cn1
[1]
  Ratio: 1
Hexokinase-4 [2]
  EC50: 98 nM
[7]
  clearance: 41.7 mL/min/kg
Hexokinase-4 [3]
  EC50: 66 nM
[4]
  S0.5: 0.82 mM

## CNC(=O)Nc1cc(Oc2cncc(C)c2)c([C@H]2C[C@@H]2CO)cn1 (relative stereo)
[1]
  Ratio: 1
[4]
  S0.5: 0.58 mM

## CNC(=O)Nc1cc(Oc2cncc(C)c2)c([C@@H]2CC[C@@H](O)C2)cn1
[1]
  Ratio: 0.94
[4]
  S0.5: 0.47 mM

## CNC(=O)Nc1cc(Oc2cncc(OC)c2)c([C@H]2COCCC2(F)F)cn1
[1]
  Ratio: 0.89
Hexokinase-4 [2]
  EC50: 990 nM
Hexokinase-4 [3]
  EC50: 530 nM
[4]
  S0.5: 0.51 mM

## CNC(=O)Nc1cc(Oc2cncc(OC)c2)c(C2=CCCOC2)cn1
[1]
  Ratio: 0.99
Hexokinase-4 [2]
  EC50: 130 nM
[7]
  clearance: 38.3 mL/min/kg
Hexokinase-4 [3]
  EC50: 400 nM
[4]
  S0.5: 0.69 mM

## CNC(=O)Nc1cc(Oc2cncc(C)c2)c(CCO)cn1
[1]
  Ratio: 0.9
Hexokinase-4 [2]
  EC50: 330 nM
[5]
  solubility: 450 µM (≈ 136 µg/mL)
Hexokinase-4 [3]
  EC50: 130 nM
[6]
  Ratio EC50: 1 to 3
[4]
  S0.5: 0.6 mM

## CNC(=O)Nc1cc(Oc2cncc(OC)c2)c([C@@H]2CCOC2)cn1
[1]
  Ratio: 1.1
Hexokinase-4 [2]
  EC50: 190 nM
Hexokinase-4 [3]
  EC50: 110 nM
[4]
  S0.5: 0.53 mM

## CNC(=O)Nc1cc(Oc2cncc(C)c2)c([C@H]2C[C@](C)(O)C2)cn1
[1]
  Ratio: 0.71
Hexokinase-4 [2]
  EC50: 300 nM
Hexokinase-4 [3]
  EC50: 160 nM
[4]
  S0.5: 0.7 mM

## CNC(=O)Nc1cc(Oc2cncc(OC)c2)c([C@@H]2CCCOC2)cn1
[1]
  Ratio: 0.94
Hexokinase-4 [2]
  EC50: 110 nM
Hexokinase-4 [3]
  EC50: 720 nM
[4]
  S0.5: 0.62 mM

## CNC(=O)Nc1cc(Oc2cncc(C)c2)c([C@H]2C[C@@H](O)C2)cn1
[1]
  Ratio: 0.97
[9]
  bioavailability: 39%
[11]; read-out: AUC
  AUC: 1.84 µM·h
[12]
  half-life: 1.2 h
Hexokinase-4 [2]
  EC50: 140 nM
[13]
  Vd: 0.65 L/kg
[7]
  clearance: 21.7 mL/min/kg
[5]
  solubility: 332 µM (≈ 109 µg/mL)
[14]
  Fu: 25%
[15]
  AUC: 3.69 µM·h
Hexokinase-4 [3]
  EC50: 110 nM
Mus musculus [26]
  inhibition: Dose-dependent effect
[17]
  Vd: 1.2 L/kg
[18]
  clearance: 14.5 mL/min/kg
Mus musculus [27]
  inhibition in vivo at 30 mg/kg: 32%
[28]
  microsomal CLint: < 14 µL/min/mg
[20]
  bioavailability: 20%
[24]
  Fu: 9.4%
[25]
  half-life: 3 h
[4]
  S0.5: 0.66 mM

## CNC(=O)Nc1cc(Oc2cncc(C)c2)c([C@H]2CCC[C@H](O)C2)cn1
[1]
  Ratio: 1
Hexokinase-4 [2]
  EC50: 97 nM
Hexokinase-4 [3]
  EC50: 72 nM
[4]
  S0.5: 0.51 mM

## CNC(=O)Nc1cc(Oc2cncc(OC)c2)c([C@@H]2CCCN(C)C2)cn1
[1]
  Ratio: 0.78
Hexokinase-4 [2]
  EC50: 2900 nM
Hexokinase-4 [3]
  EC50: 2300 nM
[4]
  S0.5: 0.73 mM
